According to PubChem BioAssay AID248 (DTP/NCI, 2004):
Values joined by “and” are separate entries in the source; they are usually repeats but may differ in a detail not shown here. Equal values may be shown once. Toxic doses and inconclusive results are not listed. Rule as the data show it: active = T/C of 150% or more; inactive = T/C below 125%.

System: L1210 leukemia ip in BDF1 mice, survival T/C
Test: NCI In Vivo Anticancer Drug Screen. Data for tumor model L1210 Leukemia (intraperitoneal) in B6D2F1 (BDF1) mice
Conditions: endpoint: mean survival time, higher = longer survival
Method in brief: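 Survival endpoint. Drug-treated group vs vehicle group, expressed as T divided by C. Tumor passaged by transplantation.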

[1] = dose: 100.0 mg/kg/injection, schedule: Q01DX001 (ip), vehicle: saline
[2] = dose: 200.0 mg/kg/injection, schedule: Q01DX001 (ip), vehicle: saline
[3] = dose: 400.0 mg/kg/injection, schedule: Q01DX001 (ip), vehicle: saline
[4] = dose: 100.0 mg/kg/injection, schedule: Q04DX003 (ip), vehicle: saline with Tween-80
[5] = dose: 200.0 mg/kg/injection, schedule: Q04DX003 (ip), vehicle: saline with Tween-80
[6] = dose: 400.0 mg/kg/injection, schedule: Q04DX003 (ip), vehicle: saline with Tween-80

Measured: T/C

CC(C)(C)C#CCCl
inactive: [1] 96 % of control | dose: 100.0 mg/kg/injection, schedule: Q01DX009 (ip), vehicle: saline 116 % of control | [2] 105 % of control | dose: 200.0 mg/kg/injection, schedule: Q01DX009 (ip), vehicle: saline 97 % of control | [3] 94 % of control

CN(CCC#N)c1ccc(/C=C(\C#N)C(N)=O)cc1
inactive: dose: 100.0 mg/kg/injection, schedule: Q01DX001 (ip), vehicle: saline with Tween-80 102 % of control | [4] 92 % of control and 93 % of control | dose: 200.0 mg/kg/injection, schedule: Q01DX001 (ip), vehicle: saline with Tween-80 102 % of control | [5] 100 % of control and 90 % of control | dose: 400.0 mg/kg/injection, schedule: Q01DX001 (ip), vehicle: saline with Tween-80 89 % of control | [6] 98 % of control and 90 % of control

O=C(O)c1cc(I)cc(I)c1
inactive: [4] 105 % of control | [5] 101 % of control | [6] 95 % of control

CC(C)C(Cl)c1ccccc1 (stereo not given)
inactive: dose: 50.0 mg/kg/injection, schedule: Q01DX009 (ip), vehicle: saline with Tween-80 87 % of control | dose: 100.0 mg/kg/injection, schedule: Q01DX009 (ip), vehicle: saline with Tween-80 91 % of control | dose: 200.0 mg/kg/injection, schedule: Q01DX009 (ip), vehicle: saline with Tween-80 87 % of control

Cc1c(C=O)[nH]c(=O)[nH]c1=O
inactive: [1] 90 % of control | [2] 102 % of control | [3] 96 % of control

C=C(C)C(=O)OC1CC23OC2CC(COC3O)C2OC2C2OC(=O)C(=C)C12 (stereo not given)
inactive: dose: 6.25 mg/kg/injection, schedule: Q01DX009 (ip), vehicle: acetone 98 % of control | dose: 12.5 mg/kg/injection, schedule: Q01DX001 (ip), vehicle: acetone 106 % of control | dose: 12.5 mg/kg/injection, schedule: Q01DX009 (ip), vehicle: acetone 104 % of control | dose: 12.5 mg/kg/injection, schedule: Q04DX003 (ip), vehicle: acetone 90 % of control | dose: 25.0 mg/kg/injection, schedule: Q01DX001 (ip), vehicle: acetone 106 % of control | dose: 25.0 mg/kg/injection, schedule: Q04DX003 (ip), vehicle: acetone 104 % of control | dose: 50.0 mg/kg/injection, schedule: Q01DX001 (ip), vehicle: acetone 109 % of control

CC(C)(C)NCCCN1CC1(C)C (stereo not given)
inactive: dose: 6.25 mg/kg/injection, schedule: Q01DX009 (ip), vehicle: saline 90 % of control | dose: 6.25 mg/kg/injection, schedule: Q04DX003 (ip), vehicle: saline 103 % of control | dose: 12.5 mg/kg/injection, schedule: Q01DX009 (ip), vehicle: saline 93 % of control | dose: 12.5 mg/kg/injection, schedule: Q04DX003 (ip), vehicle: saline 114 % of control | dose: 25.0 mg/kg/injection, schedule: Q01DX009 (ip), vehicle: saline 93 % of control and 121 % of control | dose: 25.0 mg/kg/injection, schedule: Q04DX003 (ip), vehicle: saline 117 % of control | [1] 110 % of control

CN(CCc1ccccc1)/N=N/c1[nH]ncc1C(N)=O
inactive: dose: 100.0 mg/kg/injection, schedule: Q01DX001 (ip), vehicle: Klucel (hydroxypropylcellulose) (HPC) 108 % of control | dose: 100.0 mg/kg/injection, schedule: Q01DX009 (ip), vehicle: Klucel (hydroxypropylcellulose) (HPC) 103 % of control | dose: 100.0 mg/kg/injection, schedule: Q04DX003 (ip), vehicle: Klucel (hydroxypropylcellulose) (HPC) 105 % of control | dose: 200.0 mg/kg/injection, schedule: Q01DX001 (ip), vehicle: Klucel (hydroxypropylcellulose) (HPC) 105 % of control | dose: 200.0 mg/kg/injection, schedule: Q01DX009 (ip), vehicle: Klucel (hydroxypropylcellulose) (HPC) 106 % of control | dose: 200.0 mg/kg/injection, schedule: Q04DX003 (ip), vehicle: Klucel (hydroxypropylcellulose) (HPC) 97 % of control | dose: 400.0 mg/kg/injection, schedule: Q01DX001 (ip), vehicle: Klucel (hydroxypropylcellulose) (HPC) 113 % of control | dose: 400.0 mg/kg/injection, schedule: Q04DX003 (ip), vehicle: Klucel (hydroxypropylcellulose) (HPC) 100 % of control | dose: 600.0 mg/kg/injection, schedule: Q01DX009 (ip), vehicle: Klucel (hydroxypropylcellulose) (HPC) 105 % of control

CCOC(=O)C(=O)Nc1cc(C)ccc1C
inactive: [4] 93 % of control | [5] 95 % of control
